Data as given in PubChem BioAssay AID588565 (Sanford-Burnham Center for Chemical Genomics, 2011).
Active and inactive are the calls of the source.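 How the source made its calls: active means cytotoxic at 24 hours, with mean IC50 of 20 µM or lower; inactive means the rest.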

Tested on: CHO-XBP1 cytotoxicity, ATPlite luminescence, 24 h
Test: cytotoxicity in CHO-XBP1 reporter cells, SAR follow-up, cytotoxicity control for UPR adaptive arm activator project, cell-based, 24 h exposure, ATPlite luminescence (AID 588565)

Compound | IC50
Cc1cc(Br)cc(NC(=O)c2cc(-c3ccncc3)nc3ccccc23)c1 | > 80 µM (inactive)
O=C(Nc1ccc(C(F)(F)F)cc1)c1cc(-c2ccncc2)nc2ccccc12 | > 80 µM (inactive)
O=C(Nc1ccc(Cl)cc1)c1cc(-c2ccncc2)nc2ccccc12 | 64 µM (inactive)
O=C(Nc1ccc(Br)c(C(F)(F)F)c1)c1cc(-c2ccncc2)nc2ccccc12 | > 80 µM (inactive)
Cc1nc(Nc2nc(-c3ccccc3)cc(=O)[nH]2)nc2ccccc12 | > 80 µM (inactive)
Cc1ccc(NC(=O)c2cc(-c3ccncc3)nc3ccccc23)cc1 | > 80 µM (inactive)
O=C(Nc1ccc(F)cc1)c1cc(-c2ccncc2)nc2ccccc12 | > 80 µM (inactive)
